According to PubChem BioAssay (NCI):
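Compound exposure: 48 hours, 5 concentrations, 96-well plates. GI50 is the concentration that inhibits growth by half. TGI marks complete inhibition of growth.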

Tests used:
Assay in all cases: NCI tumour cell line growth inhibition, 48 h
MOLT-4 leukemia = test system: MOLT-4 leukemia
NCI-H522 lung = test system: NCI-H522 lung
OVCAR-5 ovarian = test system: OVCAR-5 ovarian
SK-MEL-28 melanoma = test system: SK-MEL-28 melanoma
NCI-H23 lung = test system: NCI-H23 lung
HT29 colon = test system: HT29 colon
COLO 205 colon = test system: COLO 205 colon
HL-60(TB) leukemia = test system: HL-60(TB) leukemia
SF-268 CNS = test system: SF-268 CNS
UACC-62 melanoma = test system: UACC-62 melanoma
HS 578T breast = test system: HS 578T breast
MCF7 breast = test system: MCF7 breast
A549 NSCLC = test system: A549 NSCLC
SF-295 CNS = test system: SF-295 CNS
NCI-H226 lung = test system: NCI-H226 lung
HCT-15 colon = test system: HCT-15 colon
SNB-75 CNS = test system: SNB-75 CNS
HCC-2998 colon = test system: HCC-2998 colon
U251 CNS = test system: U251 CNS
NCI-H460 lung = test system: NCI-H460 lung
MDA-MB-231 breast = test system: MDA-MB-231 breast
SK-MEL-2 melanoma = test system: SK-MEL-2 melanoma
786-0 renal = test system: 786-0 renal
SR leukemia = test system: SR leukemia
MDA-MB-435 = test system: MDA-MB-435
SK-OV-3 ovarian = test system: SK-OV-3 ovarian
RXF 393 renal = test system: RXF 393 renal
KM12 colon = test system: KM12 colon
ACHN renal = test system: ACHN renal
HOP-62 NSCLC = test system: HOP-62 NSCLC
K-562 leukemia = test system: K-562 leukemia
OVCAR-8 ovarian = test system: OVCAR-8 ovarian
SNB-19 CNS = test system: SNB-19 CNS
A498 renal = test system: A498 renal
RPMI-8226 leukemia = test system: RPMI-8226 leukemia
PC-3 prostate = test system: PC-3 prostate
HCT-116 colon = test system: HCT-116 colon
SK-MEL-5 melanoma = test system: SK-MEL-5 melanoma
SN12C renal = test system: SN12C renal
CAKI-1 renal = test system: CAKI-1 renal
UO-31 renal = test system: UO-31 renal
LOX IMVI melanoma = test system: LOX IMVI melanoma
T-47D breast = test system: T-47D breast
OVCAR-3 ovarian = test system: OVCAR-3 ovarian
SF-539 CNS = test system: SF-539 CNS
CCRF-CEM leukemia = test system: CCRF-CEM leukemia
MALME-3M melanoma = test system: MALME-3M melanoma
TK-10 renal = test system: TK-10 renal
M14 melanoma = test system: M14 melanoma
DU-145 prostate = test system: DU-145 prostate
NCI/ADR-RES ovarian = test system: NCI/ADR-RES ovarian
IGROV1 ovarian = test system: IGROV1 ovarian
UACC-257 melanoma = test system: UACC-257 melanoma
EKVX NSCLC = test system: EKVX NSCLC
OVCAR-4 ovarian = test system: OVCAR-4 ovarian
SW-620 colon = test system: SW-620 colon

## COc1ccc2c(c1)/C(=N/OC(C)=O)c1c-2c(Nc2cccc(/C(C)=N/OC(C)=O)c2)nc2ccccc12
MOLT-4 leukemia
  GI50: 25.8 µM
  TGI: 62.6 µM
NCI-H522 lung
  GI50: 35 µM
  TGI: > 100 µM
OVCAR-5 ovarian
  GI50: > 100 µM
  TGI: > 100 µM
SK-MEL-28 melanoma
  GI50: > 100 µM
  TGI: > 100 µM
NCI-H23 lung
  GI50: 35 µM
  TGI: > 100 µM
HT29 colon
  GI50: > 100 µM
  TGI: > 100 µM
COLO 205 colon
  GI50: > 100 µM
  TGI: > 100 µM
HL-60(TB) leukemia
  GI50: > 100 µM
  TGI: > 100 µM
SF-268 CNS
  GI50: 39 µM
  TGI: > 100 µM
UACC-62 melanoma
  GI50: > 100 µM
  TGI: > 100 µM
HS 578T breast
  GI50: 40.3 µM
  TGI: > 100 µM
MCF7 breast
  GI50: 85.1 µM
  TGI: > 100 µM
A549 NSCLC
  GI50: 31.1 µM
  TGI: > 100 µM
SF-295 CNS
  GI50: 29.9 µM
  TGI: > 100 µM
NCI-H226 lung
  GI50: 86.3 µM
  TGI: > 100 µM
HCT-15 colon
  GI50: > 100 µM
  TGI: > 100 µM
SNB-75 CNS
  GI50: 30.9 µM
  TGI: 64.5 µM
HCC-2998 colon
  GI50: 70.8 µM
  TGI: > 100 µM
U251 CNS
  GI50: 32.4 µM
  TGI: > 100 µM
NCI-H460 lung
  GI50: 97.4 µM
  TGI: > 100 µM
MDA-MB-231 breast
  GI50: > 100 µM
  TGI: > 100 µM
SK-MEL-2 melanoma
  GI50: 59.1 µM
  TGI: > 100 µM
786-0 renal
  GI50: 37 µM
  TGI: > 100 µM
SR leukemia
  GI50: 94.4 µM
  TGI: > 100 µM
MDA-MB-435
  GI50: > 100 µM
  TGI: > 100 µM
SK-OV-3 ovarian
  GI50: > 100 µM
  TGI: > 100 µM
RXF 393 renal
  GI50: 13.4 µM
  TGI: 40.7 µM
KM12 colon
  GI50: 48.9 µM
  TGI: > 100 µM
ACHN renal
  GI50: 21.4 µM
  TGI: 61 µM
HOP-62 NSCLC
  GI50: 37.6 µM
  TGI: > 100 µM
K-562 leukemia
  GI50: 37.9 µM
  TGI: > 100 µM
OVCAR-8 ovarian
  GI50: 17 µM
  TGI: 58.4 µM
SNB-19 CNS
  GI50: 55.4 µM
  TGI: > 100 µM
A498 renal
  GI50: 57.3 µM
  TGI: > 100 µM
RPMI-8226 leukemia
  GI50: 64.6 µM
  TGI: > 100 µM
PC-3 prostate
  GI50: 21.1 µM
  TGI: 41.5 µM
HCT-116 colon
  GI50: 41.5 µM
  TGI: > 100 µM
SK-MEL-5 melanoma
  GI50: 60.2 µM
  TGI: > 100 µM
SN12C renal
  GI50: 48.8 µM
  TGI: > 100 µM
CAKI-1 renal
  GI50: 27.3 µM
  TGI: 55.9 µM
UO-31 renal
  GI50: > 100 µM
  TGI: > 100 µM
LOX IMVI melanoma
  GI50: 67.7 µM
  TGI: > 100 µM
T-47D breast
  GI50: 37.3 µM
  TGI: > 100 µM
OVCAR-3 ovarian
  GI50: 56.5 µM
  TGI: > 100 µM
SF-539 CNS
  GI50: 63.9 µM
  TGI: > 100 µM
CCRF-CEM leukemia
  GI50: 84.6 µM
  TGI: > 100 µM
MALME-3M melanoma
  GI50: 96.4 µM
  TGI: > 100 µM
TK-10 renal
  GI50: 77.6 µM
  TGI: > 100 µM
M14 melanoma
  GI50: > 100 µM
  TGI: > 100 µM
DU-145 prostate
  GI50: 29.5 µM
  TGI: 85.6 µM
NCI/ADR-RES ovarian
  GI50: 55.3 µM
  TGI: > 100 µM
IGROV1 ovarian
  GI50: 47.5 µM
  TGI: > 100 µM
UACC-257 melanoma
  GI50: 36.2 µM
  TGI: > 100 µM
EKVX NSCLC
  GI50: 21.9 µM
  TGI: 53.1 µM
OVCAR-4 ovarian
  GI50: 86.6 µM
  TGI: > 100 µM
SW-620 colon
  GI50: 47.5 µM
  TGI: > 100 µM
